Molecules are shown by their SMILES. pIC50: −log10 of the molar value.

This assay has as its target human PAD4 (hPAD4) (Homo sapiens, UniProt Q9UM07). The experiment in a line: RFMS human PAD4 functional assay (rapid-fire mass spectrum). The assay is classed as biochemical. The conditions noted are these: 5 nM hPAD4 enzyme, 250 μM BAEE, 50 μM Calcium; 30 min preincubation, 90 min reaction at 37° C. A digest of the protocol: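 PAD4 (10 nM) preincubated 30 min with compound (top final 50 μM), then BAEE substrate added in pH 7.5 HEPES buffer with DTT, 50 μM calcium, TPEN; 90 min at 37° C. After TCA quench, citrulline derivatized with phenyl glyoxal (4 mM final, 30 min, 37° C) and quantified by RapidFire MS against internal standard.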

Sequence of human PAD4 (hPAD4) (Q9UM07 whole entry): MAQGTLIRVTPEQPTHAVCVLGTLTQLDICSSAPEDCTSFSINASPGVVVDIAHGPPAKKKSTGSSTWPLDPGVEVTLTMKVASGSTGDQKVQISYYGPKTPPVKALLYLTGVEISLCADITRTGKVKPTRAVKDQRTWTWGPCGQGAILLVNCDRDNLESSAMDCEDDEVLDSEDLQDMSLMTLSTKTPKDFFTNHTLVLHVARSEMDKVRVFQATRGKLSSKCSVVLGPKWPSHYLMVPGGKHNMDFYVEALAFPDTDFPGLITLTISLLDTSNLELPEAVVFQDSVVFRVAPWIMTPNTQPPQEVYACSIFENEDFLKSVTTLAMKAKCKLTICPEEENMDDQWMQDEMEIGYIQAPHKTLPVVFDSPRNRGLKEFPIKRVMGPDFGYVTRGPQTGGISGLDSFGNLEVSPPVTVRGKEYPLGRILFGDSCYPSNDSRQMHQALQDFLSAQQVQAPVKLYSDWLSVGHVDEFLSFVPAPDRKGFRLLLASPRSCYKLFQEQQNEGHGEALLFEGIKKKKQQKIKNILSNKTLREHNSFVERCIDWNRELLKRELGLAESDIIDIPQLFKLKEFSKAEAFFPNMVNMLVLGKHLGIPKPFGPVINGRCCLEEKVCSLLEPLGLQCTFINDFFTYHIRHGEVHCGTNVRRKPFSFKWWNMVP

Regarding `COc1cc(C(=O)N2CC3CCC2[C@@H]3N)cc2nc(-c3cc4cccnc4n3CC3CC3)n(CC3CN(C(=O)c4ccc(C#N)c(F)c4)C3)c12` (stereo partly drawn) [Example 459, 4-[3-({5-[(7R)-7-amino-2-azabicyclo[2.2.1]heptane-2-carbonyl]-2-[1-(cyclopropylmethyl)-1H-pyrrolo[2,3-b]pyridin-2-yl]-7-methoxy-1H-1,3-benzodiazol-1-yl}methyl)azetidine-1-carbonyl]-2-fluorobenzonitrile], the negative logarithm of the IC50 (pIC50) was 7.18.

Turning to `COc1cc(C(=O)N2C[C@H](N)C[C@@H](F)C2)cc2nc(-c3cc4cccnc4n3CC3CC3)n(Cc3cnn(C)c3)c12` [Example 250, ((3R,5R)-3-amino-5-fluoropiperidin-1-yl)(2-(1-(cyclopropylmethyl)-1H-pyrrolo[2,3-b]pyridin-2-yl)-7-methoxy-1-((1-methyl-1H-pyrazol-4-yl)methyl)-1H-benzo[d]imidazol-5-yl)methanone], the negative logarithm of the IC50 (pIC50) was 7.05. Then `COc1cc(C(=O)N2CC3CCC2[C@@H]3N)cc2nc(-c3cc4cccnc4n3CC3CC3)n(CC3CCN(c4cnc(C#N)nc4)CC3)c12` (stereo partly drawn) [Example 221, 5-[4-({5-[(1R,4R.,7R)-7-amino-2-azabicyclo[2.2.1]heptane-2-carbonyl]-2-[1-(cyclopropylmethyl)-1H-pyrrolo[2,3-b]pyridin-2-yl]-7-methoxy-1H-1,3-benzodiazol-1-yl}methyl)piperidin-1-yl]pyrimidine-2-carbonitrile], with 7.02; and `COc1cc(C(=O)N2CC3CCC2[C@@H]3N)cc2nc(-c3cc4cccnc4n3CC3CC3)n(CC3CN(C(=O)[C@H]4C[C@@H]4C)C3)c12` (stereo partly drawn) [Example 106, (1R,4R,7R)-2-{2-[1-(cyclopropylmethyl)-1H-pyrrolo[2,3-b]pyridin-2-yl]-7-methoxy-1-({1-[(1S,2S)-2-methylcyclopropanecarbonyl]aze-tidin-3-yl}methyl)-1H-1,3-benzodiazole-5-carbonyl}-2-azabicyclo[2.2.1]heptan-7-amine], with 7.49.

With `COc1cc(C(=O)N2C[C@H]3CC[C@@H]2[C@@H]3N)cc2nc(-c3cc4ccccc4n3C)n(CC3CN(c4cncc(C#N)n4)C3)c12` [Example 41, 6-[3-({5-[(1R,4R,7R)-7-amino-2-azabicyclo[2.2.1]heptane-2-carbonyl]-7-methoxy-2-(1-methyl-1H-indol-2-yl)-1H-1,3-benzodiazol-1-yl}methyl)azetidin-1-yl]pyrazine-2-carbonitrile], the negative-log IC50 (pIC50) is 7.00. `COc1cc(C(=O)N2C[C@H](N)C[C@@H](F)C2)cc2nc(-c3cc4cccnc4n3CC3CC3)n(Cc3cnn(-c4cccc(O)n4)c3)c12` [Example 407, 6-[4-({5-[(3R,5R)-3-amino-5-fluoropipendine-1-carbonyl]-2-[1-(cyelopropylmethyl)-1H-pyrrolo[2,3-b]pyridin-2-yl]-7-methoxy-1H-1,3-benzodiazol-1-yl}methyl)-1H-pyrazol-1-yl]pyridin-2-ol]: the pIC50 was 7.14. Then `COc1cc(C(=O)N2C[C@H]3CC[C@@H]2[C@@H]3N)cc2nc(-c3cc4ccccc4n3CC3CC3)n(CC3CN(C(=O)c4cccnc4)C3)c12` [Example 171, (1R,4R,7R)-2-{2-[1-(cyclopropylmethyl)-1H-indol-2-yl]-7-methoxy-1-{[1-(pyridine-3-carbonyl)azetidin-3-yl]methyl}-1H-1,3-benzodiazole-5-carbonyl}-2-azabicyclo[2.2.1]heptan-7-amine], with 7.39; and `COc1cc(C(=O)N2C[C@H]3CC[C@@H]2[C@@H]3N)cc2nc(-c3cc4ccccc4n3CC3CC3)n(CC3CN(C(=O)c4ccccc4)C3)c12` [Example 145, (1R,4R,7R)-2-{1-[(1-benzoylazetidin-3-yl)methyl]-2-[1-(cyclopropylmethyl)-1H-indol-2-yl]-7-methoxy-1H-1,3-benzodiazole-5-carbonyl}-2-azabicyclo[2.2.1]heptan-7-amine], with 7.74; and `COc1cc(C(=O)N2CC3CCC2[C@@H]3N)cc2nc(-c3cc4ccccc4n3CC3CC3)n(Cc3cn(C)nc3C)c12` (stereo partly drawn) [Example 492, (7R)-2-{2-[1-(cyclopropylmethyl)-1H-indol-2-yl]-1-[(1,3-dimethyl-1H-pyrazol-4-yl)methyl]-7-methoxy-1H-1,3-benzodiazole-5-carbonyl}-2-azabicyclo[2.2.1]heptan-7-amine], with 7.11. The figure for `Cn1cc(Cn2c(-c3cc4ccccc4n3CC3CC3)nc3cc(C(=O)N4C[C@H](N)C[C@@H](F)C4)cc(Cl)c32)cn1` [Example 517, (3R,5R)-1-{7-chloro-2-[1-(cyclopropylmethyl)-1H-indol-2-yl]-1-[(1-methyl-1H-pyrazol-4-yl)methyl]-1H-1,3-benzodiazole-5-carbonyl}-5-fluoropiperidin-3-amine] is 6.23; for `COc1cc(C(=O)N2C[C@H]3CC[C@@H]2[C@@H]3N)cc2nc(-c3cc4ccccc4n3CC3CC3)n(CC3CN(C(=O)c4nn[nH]n4)C3)c12` [Example 173, (1R,4R,7R)-2-{2-[1-(cyclopropylmethyl)-1H-indol-2-yl]-7-methoxy-1-{[1-(2H-1,2,3,4-tetrazole-5-carbonyl)azetidin-3-yl]methyl}-1H-1,3-benzodiazole-5-carbonyl}-2-azabicyclo[2.2.1]heptan-7-amine] it is 7.30. The figure for `COc1cc(C(=O)N2CC3CCC2[C@@H]3N)cc2nc(-c3cc4ccccc4n3CC3CC3)n(CC3CN(C(=O)c4ccnc(C)c4)C3)c12` (stereo partly drawn) [Example 421, (7R)-2-{2-[1-(cyclopropylmethyl)-1H-indol-2-yl]-7-methoxy-1-{[1-(2-methylpyridine-4-carbonyl)azetidin-3-yl]methyl}-1H-1,3-benzodiazole-5-carbonyl}-2-azabicyclo[2.2.1]heptan-7-amine] is 7.68; for `COc1cc(C(=O)N2C[C@H]3CC[C@@H]2[C@@H]3N)cc2nc(-c3cc4ccccc4n3C)n(CC3CNC3)c12` [Example 308, (1R,4R,7R)-2-{1-[(azetidin-3-yl)methyl]-7-methoxy-2-(1-methyl-1H-indol-2-yl)-1H-1,3-benzodiazole-5-carbonyl}-2-azabicyclo[2.2.1]heptan-7-amine] it is 6.27. With `COc1cc(C(=O)N2C[C@H]3CC[C@@H]2[C@@H]3N)cc2nc(-c3cc4cccnc4n3CC3CC3)n(C3CN(C(=O)c4ccnc(Cl)c4)C3)c12` [Example 98, (1R,4R,7R)-2-{1-[1-(2-chloropyridine-4-carbonyl)azetidin-3-yl]-2-[1-(cyclopropylmethyl)-1H-pyrrolo[2,3-b]pyridin-2-yl]-7-methoxy-1H-1,3-benzodiazole-5-carbonyl}-2-azabicyclo[2.2.1]heptan-7-amine], the negative logarithm of the IC50 (pIC50) is 7.15. The figure for `COc1cc(C(=O)N2C[C@H]3CC[C@@H]2[C@@H]3N)cc2nc(-c3cc4cccnc4n3CC3CC3)n(CC3CN(c4ncncc4C#N)C3)c12` [Example 37, 4-[3-({5-[(1R,4R,7R)-7-amino-2-azabicyclo[2.2.1]heptane-2-carbonyl]-2-[1-(cyclopropylmethyl)-1H-pyrrolo[2,3-b]pyridin-2-yl]-7-methoxy-1H-1,3-benzodiazol-1-yl}methyl)azetidin-1-yl]pyrimidine-5-carbonitrile] is 7.03. `COc1cc(C(=O)N2C[C@H](N)C[C@@H](F)C2)cc2nc(-c3cc4cccnc4n3CC3CC3)n(Cc3cnn(-c4cccn(C)c4=O)c3)c12` [Example 347, 3-[4-({5-[(3R,5R)-3-amino-5-fluoropiperidine-1-carbonyl]-2-[1-(cyclopropyimethyl)-1H-pyrrolo[2,3-b]pyridin-2-yl]-7-methoxy-1H-1,3-benzodiazol-1-yl}methyl)-1H-pyrazol-1-yl]-1-methyl-1,2-dihydropyridin-2-one]: the pIC50 is 7.01. Then `COc1cc(C(=O)N2CC3CCC2[C@@H]3N)cc2nc(-c3cc4ccccc4n3CC3CC3)n(Cc3cnn(-c4ccc(O)nc4)c3)c12` (stereo partly drawn) [Example 399, 5-[4-({5-[(7R)-7-amino-2-azabicyclo[2.2.1]heptane-2-carbonyl]-2-[1-(cyclopropylmethyl)-1H-indol-2-yl]-7-methoxy-1H-1,3-benzodiazol-1-yl}methyl)-1H-pyrazol-1-yl]pyridin-2-ol], with 7.24; and `COc1cc(C(=O)N2C[C@H]3CC[C@@H]2[C@@H]3N)cc2nc(-c3cc4cccnc4n3CC3CC3)n(CC3CN(C(=O)c4cc[nH]c(=O)c4)C3)c12` [Example 182, 4-[3-({5-[(1R,4R,7R)-7-amino-2-azabicyclo[2.2.1]heptane-2-carbonyl]-2-[1-(cyclopropylmethyl)-1H-pyrrolo[2,3-b]pyridin-2-yl]-7-methoxy-1H-1,3-benzodiazol-1-yl}methyl)azetidine-1-carbonyl]-1,2-dihydropyridin-2-one], with 6.69.

As to `COc1cc(C(=O)N2C[C@H]3CC[C@@H]2[C@@H]3N)cc2nc(-c3cc4cccnc4n3CC3CC3)n(CC3CN(c4cncnc4)C3)c12` [Example 27, (1R,4R,7R)-2-{2-[1-(cyclopropylmethyl)-1H-pyrrolo[2,3-b]pyridin-2-yl]-7-methoxy-1-{[1-(pyrimidin-5-yl)azetidin-3-yl]methyl}-1H-1,3-benzodiazole-5-carbonyl}-2-azabicyclo[2.2.1]heptan-7-amine], the pIC50 was 7.14. The figure for `COc1ncccc1-n1cc(Cn2c(-c3cc4ccccc4n3CC3CC3)nc3cc(C(=O)N4CC5CCC4[C@@H]5N)cc(OC)c32)cn1` (stereo partly drawn) [Example 403, (7R)-2-{2-[1-(cyclopropylmethyl)-1H-indol-2-yl]-7-methoxy-1-{[1-(2-methoxypyridin-3-yl)-1H-pyrazol-4-yl]methyl}-1H-1,3-benzodiazole-5-carbonyl)-2-azabicyclo[2.2.1]heptan-7-amine] is 7.18; for `COc1cc(C(=O)N2C[C@H]3CC[C@@H]2[C@@H]3N)cc2nc(-c3cc4cccnc4n3CC3CC3)n(CC3CCN(C(=O)c4ccnc(C)n4)CC3)c12` [Example 199, (1R,4R,7R)-2-{2-[1-(cyclopropylmethyl)-1H-pyrrolo[2,3-b]pyridin-2-yl]-7-methoxy-1-{[1-(2-methylpyrimidine-4-carbonyl)piperidin-4-yl]methyl}-1H-1,3-benzodiazole-5-carbonyl}-2-azabicyclo[2.2.1]heptan-7-amine] it is 6.79.

The pIC50 is −log10 of the IC50, conventionally taken in molar units.
